Literature values in patent US20230149600A1, “COLLAGEN-BASED DEVICE HAVING ANTIFUNGAL PROPERTIES” (AROA BIOSURGERY LIMITED, priority 2016, published 2023).

Legend:
[1] = system: fungal spores of the genera Aspergillus, Penicillium and Curvularia; conditions: called "moderate" activity
C. albicans biofilms = conditions: doxycycline concentrations >0.512 mg/mL; not correlated with fungicidal efficacy
Candida albicans = conditions: 5% (50 mg/mL) doxycycline solution
C. albicans = conditions: 20 strains of C. albicans

## Doxycycline
[1]
  inhibition of fungal spore germination: 50-70%
C. albicans biofilms
  reduction in metabolic activity of C. albicans biofilms: ≥ 80%
Candida albicans
  antifungal effect relative to other solutions: more active than a 17% EDTA solution but less active than a 2.5% NaOCl solution or a 0.2% chlorhexidine gluconate solution
C. albicans
  MIC range: 640 to 1280 µg/mL
